These results are taken from patent US8734796B2, “Carrier immunoglobulins” (Amgen Inc., priority 2009, dated 2014).

For series [1], the system named is thapsigargin-induced IL-2 secretion from T cells in human whole blood. The series is described as follows: Human whole blood ex vivo assay, IL-2 secretion. The series is classed as cell-based. The note with it: for IC50: 50% human whole blood, thapsigargin stimulus, 48 hours, read-out: WB (IL-2) IC50.
The subject of series [2] is thapsigargin-induced IFN-g secretion from T cells in human whole blood. The experiment in a line: Human whole blood ex vivo assay, IFN-g secretion. It is filed as cell-based. Particulars: 50% human whole blood, thapsigargin stimulus, 48 hours; read-out: WB (IFNg) IC50.
Series [3] concerns the target cloned hKv1.5 (Homo sapiens, UniProt P22460). The experiment in a line: FASTPatch PatchXpress counterscreen, hKv1.5. It is filed as cell-based. The note with it: positive control, 2 mM.
For series [4] the following is noted: reported by C. Beeton et al., PNAS 98:13942 (2001); cited from earlier work.
For series [5], the target named is T1, cloned hKv4.3 (Homo sapiens, UniProt Q9UK17).
T1 sequence (Q9UK17 1-655): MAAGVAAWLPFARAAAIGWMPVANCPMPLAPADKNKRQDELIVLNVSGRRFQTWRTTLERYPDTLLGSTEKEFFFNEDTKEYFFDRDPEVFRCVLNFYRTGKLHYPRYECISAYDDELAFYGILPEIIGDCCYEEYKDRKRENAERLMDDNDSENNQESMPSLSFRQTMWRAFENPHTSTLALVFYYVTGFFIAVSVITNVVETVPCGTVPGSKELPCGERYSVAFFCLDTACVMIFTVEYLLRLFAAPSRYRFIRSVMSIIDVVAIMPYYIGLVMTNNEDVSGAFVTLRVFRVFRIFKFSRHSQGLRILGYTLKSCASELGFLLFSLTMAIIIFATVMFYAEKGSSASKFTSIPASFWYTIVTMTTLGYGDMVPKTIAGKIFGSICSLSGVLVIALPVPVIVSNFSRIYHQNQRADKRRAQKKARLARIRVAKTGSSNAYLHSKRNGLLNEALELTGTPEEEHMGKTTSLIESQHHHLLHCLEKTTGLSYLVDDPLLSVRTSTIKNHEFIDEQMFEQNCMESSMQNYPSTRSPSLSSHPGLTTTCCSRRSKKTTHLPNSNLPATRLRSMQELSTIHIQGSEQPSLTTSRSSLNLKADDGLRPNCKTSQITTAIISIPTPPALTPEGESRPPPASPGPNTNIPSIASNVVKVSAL
The series is described as follows: FASTPatch PatchXpress counterscreen, hKv4.3. It is filed as cell-based. The note with it: positive control, 0.1 mM.

Series [6] has as its target human Kv1.3 (Homo sapiens, UniProt P22001). The experiment in a line: Whole cell patch clamp electrophysiology, Kv1.3.
In series [7] the target is T2, DNP(31)-BSA (Bos taurus, UniProt P02769).
T2 construct: purchased Biosearch Technologies, Inc. (Novato, Calif.)
T2 sequence (P02769 25-607): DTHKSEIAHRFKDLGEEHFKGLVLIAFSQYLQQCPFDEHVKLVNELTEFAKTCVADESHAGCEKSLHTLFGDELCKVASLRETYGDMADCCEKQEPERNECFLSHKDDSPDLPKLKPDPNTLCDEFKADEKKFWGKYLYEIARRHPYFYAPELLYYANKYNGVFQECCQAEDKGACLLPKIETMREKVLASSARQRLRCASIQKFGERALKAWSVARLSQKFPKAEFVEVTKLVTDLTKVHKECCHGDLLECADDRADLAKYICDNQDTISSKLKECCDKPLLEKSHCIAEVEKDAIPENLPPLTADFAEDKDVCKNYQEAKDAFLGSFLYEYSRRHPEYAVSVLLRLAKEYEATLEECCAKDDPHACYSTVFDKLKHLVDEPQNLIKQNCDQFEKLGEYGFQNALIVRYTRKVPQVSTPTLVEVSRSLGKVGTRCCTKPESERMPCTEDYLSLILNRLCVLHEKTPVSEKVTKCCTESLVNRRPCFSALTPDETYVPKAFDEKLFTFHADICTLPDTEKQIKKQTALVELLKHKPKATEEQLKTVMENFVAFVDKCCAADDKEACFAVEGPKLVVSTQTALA
The series is described as follows: BIAcore binding assay, DNP(31)-BSA. Particulars: apparent. As for the experimental part: Materials. Purified anti-DNP antibodies from either hybridoma (3A1, 3C2, 3A4 and 3B1) or recombinant CHO (3A4-F-G2 and 3B1-G2) expression were tested. Anti-human IgG, Fcγ-specific antibody was from Jackson ImmunoResearch Laboratories, Inc. (West Grove, Pa.). DNP-BSA (2,4-dinitrophenol conjugated to bovine serum albumin) was from Biosearch Technologies, Inc. (Novato, Calif.). BIACore 2000, research grade sensor chip CM5, surfactant P-20 (polyoxyethylenesorbitan), HBS-EP (10 mM HEPES, 0.15M NaCl, 3.4 mM EDTA, 0.005% P-20, pH 7.4), amine coupling reagents, 10 mM acetate pH 4.0 and 10 mM glycine, pH 1.5 were from BIACore, Inc. (Piscataway, N.J.). Phosphate-buffered saline (PBS, 1×, no calcium chloride, no magnesium chloride) was from Invitrogen (Carlsbad, Calif.). Bovine serum albumin (BSA, fraction V, IgG free) was from Sigma (St. Louis, Mo.).
Methods. BIAcore® analyses were carried out as follows. Immobilization of anti-human IgG, Fcγ-specific antibody to the CM5 sensor chip surface was performed according to manufacturer's instructions, using a continuous flow of 10 mM HEPES, 0.15M NaCl, 3.4 mM EDTA, 0.005% P-20, pH 7.4 (HBS-EP buffer). Briefly, carboxyl groups on the sensor chip surfaces were activated by injecting 60 μL of a mixture containing 0.2 M 1-ethyl-3-[3-dimethylaminopropyl]carbodiimide hydrochloride (EDC) and 0.05 M N-hydroxysuccinimide (NHS). Specific surfaces were obtained by injecting 180 μL of anti-human IgG, Fcγ-specific antibody diluted in 10 mM acetate buffer (for assay of aKLH antibodies: pH 4.5 at a concentration of 30 μg/mL; for assay of aDNP antibodies: pH 4.0 at a concentration of 60 μg/mL). Excess reactive groups on the surfaces were deactivated by injecting 60 μL of 1 M ethanolamine. Final immobilized levels were about 9,000 (for assay of aKLH antibodies) or about 10,000 (for assay of aDNP antibodies) resonance units (RU). A blank, mock-coupled reference surface was also prepared on the sensor chip. Antibodies and antigen were diluted in sample buffer consisting of PBS+0.005% P-20+0.1 mg/mL BSA. […]
For orientation: In SPR one partner is held on a chip, and binding of the other changes the refractive index at the surface.

No end group written: not given here.

For orientation: IC50 means the concentration that inhibits the measured activity by half. What is called half-life is the time in which the quantity being followed falls by half.

Sequence of human Kv1.3 (P22001 whole entry): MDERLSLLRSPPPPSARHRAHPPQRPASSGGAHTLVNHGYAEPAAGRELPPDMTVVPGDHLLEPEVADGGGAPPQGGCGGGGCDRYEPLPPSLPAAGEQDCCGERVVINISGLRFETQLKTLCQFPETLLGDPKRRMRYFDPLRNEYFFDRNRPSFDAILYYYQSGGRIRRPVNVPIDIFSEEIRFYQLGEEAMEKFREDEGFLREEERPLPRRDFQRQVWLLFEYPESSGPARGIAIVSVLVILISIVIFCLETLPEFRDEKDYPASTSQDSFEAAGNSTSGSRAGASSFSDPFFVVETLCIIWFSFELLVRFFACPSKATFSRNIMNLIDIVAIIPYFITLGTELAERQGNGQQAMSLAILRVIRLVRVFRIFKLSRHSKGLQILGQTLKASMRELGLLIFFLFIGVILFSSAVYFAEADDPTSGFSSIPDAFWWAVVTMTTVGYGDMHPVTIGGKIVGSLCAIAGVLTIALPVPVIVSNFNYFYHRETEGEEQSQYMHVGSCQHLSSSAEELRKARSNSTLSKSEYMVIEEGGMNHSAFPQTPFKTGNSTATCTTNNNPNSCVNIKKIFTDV
Sequence of cloned hKv1.5 (P22460 whole entry): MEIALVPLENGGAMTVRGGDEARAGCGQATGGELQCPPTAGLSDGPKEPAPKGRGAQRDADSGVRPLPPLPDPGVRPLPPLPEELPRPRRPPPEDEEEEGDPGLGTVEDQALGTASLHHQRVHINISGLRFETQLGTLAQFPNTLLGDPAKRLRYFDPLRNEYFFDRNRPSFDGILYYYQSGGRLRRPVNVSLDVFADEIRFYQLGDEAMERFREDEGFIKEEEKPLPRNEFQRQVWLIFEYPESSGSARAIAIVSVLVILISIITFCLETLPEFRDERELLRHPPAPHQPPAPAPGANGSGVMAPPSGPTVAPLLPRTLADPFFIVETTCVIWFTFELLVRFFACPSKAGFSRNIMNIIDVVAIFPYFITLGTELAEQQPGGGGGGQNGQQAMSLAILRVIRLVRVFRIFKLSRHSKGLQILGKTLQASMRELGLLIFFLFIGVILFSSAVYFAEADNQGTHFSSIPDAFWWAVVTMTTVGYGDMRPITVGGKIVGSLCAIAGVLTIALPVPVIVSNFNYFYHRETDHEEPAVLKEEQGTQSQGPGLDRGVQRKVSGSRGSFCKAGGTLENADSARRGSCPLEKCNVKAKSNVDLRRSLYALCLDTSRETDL

As to “20 kDa-PEG-ShK: SEQ ID NO:363; ShK PEGylated at its N-terminus with 20 kDa PEG [reference compound]”, the figures for the IC50 in series [1] and in series [2] were 0.38 nM and 0.84 nM, respectively.

On to `Nc1ccncc1` [4-aminopyridine], for which, in series [3], the “block of the hKv1.5 current” value is given as “about 80%”.

Take `CC[C@H](C)[C@@H]1NC(=O)[C@@H](NC(=O)[C@H](CO)NC(=O)[C@@H](N)CCCNC(=N)N)CSSC[C@@H](C(=O)O)NC(=O)[C@H]([C@@H](C)O)NC(=O)CNC(=O)[C@@H]2CSSC[C@@H]3NC(=O)[C@H](CCC(N)=O)NC(=O)[C@H](Cc4ccccc4)NC(=O)[C@H](C)NC(=O)[C@H]([C@@H](C)O)NC(=O)[C@H](CSSC[C@H](NC(=O)[C@H](Cc4ccccc4)NC(=O)[C@H](CO)NC(=O)[C@H](CC(C)C)NC(=O)[C@H](CCCNC(=N)N)NC(=O)[C@H](Cc4ccc(O)cc4)NC(=O)[C@H](CCCCN)NC(=O)[C@H](CCSC)NC(=O)[C@H](CO)NC(=O)[C@H](Cc4cnc[nH]4)NC(=O)[C@H](CCCCN)NC3=O)C(=O)N[C@@H](CCCNC(=N)N)C(=O)N[C@@H](CCCCN)C(=O)N[C@@H]([C@@H](C)O)C(=O)N2)NC(=O)[C@H](CCCNC(=N)N)NC(=O)[C@H](CO)NC(=O)[C@H](CCCCN)NC(=O)[C@@H]2CCCN2C(=O)[C@H]([C@@H](C)CC)NC(=O)[C@H]([C@@H](C)O)NC(=O)[C@H](CC(=O)O)NC1=O` [ShK(1-35), ShK]: the half-life in series [4] was 20 to 30 min.

For the molecule `O=C(NCC1CCCCN1)c1cc(OCC(F)(F)F)ccc1OCC(F)(F)F` (stereo not drawn) [flecamide], in series [5], the “inhibition of the hKv4.3 current” value is listed as “about 75%”.

Turning to “Bivalent Fc-L10-ShK[1-35] homodimer: IgG1 Fc-L10-ShK(1-35) peptibody homodimer, Example 1 of WO2008/088422A2 (GGGGSGGGGSRSCIDTIPKSRCTAFQCKHSMKYRLSFCRKTCGTC; not fully specified (N-terminus); ends and bridges not checked; also: homodimer via Fc) [reference compound]”, the figures for the IC50 in series [1] and in series [2] were 0.386 nM and 0.32 nM, respectively. The “greater Kv1.3 activity compared to the bivalent Fc-L10-ShK(2-35) molecule” value in series [6] (whole cell patch clamp electrophysiology) is on record as “about 8 fold”.

“Bivalent Fc-L10-ShK[2-35] homodimer: IgG1 Fc-L10-ShK(2-35) peptibody homodimer, Example 2 of WO2008/088422A2 (GGGGSGGGGSSCIDTIPKSRCTAFQCKHSMKYRLSFCRKTCGTC; not fully specified (N-terminus); ends and bridges not checked; also: homodimer via Fc) [reference compound]”: the IC50 in series [1] came to 0.585 nM; in series [2], 2.29 nM. Further, the “Potency Relative to ShK (WB, IL2)” value in series [1] (ratio of WB IL-2 IC50 to that of ShK(1-35)) was 8.73. Also, the “Kv1.1/Kv1.3 Selectivity Ratio (of asterisked IC50 values)” value in series [6] (IC50 values from whole cell patch clamp) was 3.54.

B1: 3B1-G2: recombinant IgG2 form of anti-DNP antibody 3B1 (protein)
light: DIQMTQSPSSLSASEGDRVTITCRASQGIRNDLGWYQQKPGKAPKRLIYAASSLQSGVPLRFSGSGSGTEFTLTISSLQPEDFATYYCLQYNSYPWTFGQGTKVEIKRTVAAPSVFIFPPSDEQLKSGTASVVCLLNNFYPREAKVQWKVDNALQSGNSQESVTEQDSKDSTYSLSSTLTLSKADYEKHKVYACEVTHQGLSSPVTKSFNRGEC
heavy: QVQLQESGPGLVKPSETLSLTCTVSGGSISSYYWSWIRQPPGKGLEWIGYIYYSGNTNSNPSLKSRVTISVDTSKNQFSLKLSSVTAADTAVYYCARTYYDSSGYYYRAFDIWGQGTMVTVSSASTKGPSVFPLAPCSRSTSESTAALGCLVKDYFPEPVTVSWNSGALTSGVHTFPAVLQSSGLYSLSSVVTVPSSNFGTQTYTCNVDHKPSNTKVDKTVERKCCVECPPCPAPPVAGPSVFLFPPKPKDTLMISRTPEVTCVVVDVSHEDPEVQFNWYVDGVEVHNAKTKPREEQFNSTFRVVSVLTVVHQDWLNGKEYKCKVSNKGLPAPIEKTISKTKGQPREPQVYTLPPSREEMTKNQVSLTCLVKGFYPSDIAVEWESNGQPENNYKTTPPMLDSDGSFFLYSKLTVDKSRWQQGNVFSCSVMHEALHNHYTQKSLSLSPGK
For B1, the Kd in series [7] was determined as 0.7 nM. For the same molecule, in series [7] (ne(y) = n × 10^(y)), the “ka, Binding to DNP(31)-BSA” value turned out to be 420000 M⁻¹ s⁻¹ and the “kd, Binding to DNP(31)-BSA” value turned out to be 0.00031 s⁻¹.
